Test results: patent publication US11827646B2, “Compounds for treating spinal muscular atrophy” (Hoffmann-La Roche Inc., priority 2014, dated 2023)

Tested on: SMN protein in SMA patient fibroblast cells (GM03813)
Experiment: SMN protein assay in cultured cells (SMN HTRF)
Format: cell-based
Conditions: Homo sapiens, SMA Type 1 patient fibroblasts, 48 hours; for EC (1.5-fold): 7-point concentration curve, 1.5 times SMN protein vs vehicle, read-out: EC1.5x SMN protein (EC1.5x concentration for SMN protein expression); for maximal fold induction: fold increase relative to vehicle control, read-out: max. fold increase of SMN protein
Text: The term “EC1.5x concentration for SMN protein expression” (or “EC1.5x SMN protein”) is defined as that concentration of test compound that is effective in producing 1.5 times the amount of SMN protein in an SMA patient fibroblast cell compared to the amount produced from the vehicle control.
The SMN HTRF (homogeneous time resolved fluorescence) assay is used to quantify the level of SMN protein in SMA patient fibroblast cells treated with test compounds. Materials used and respective sources are listed below in Table 4.
Cells are thawed and cultured in DMEM-10% FBS for 72 hours. Cells are trypsinized, counted and re-suspended to a concentration of 25,000 cells/mL in DMEM-10% FBS. The cell suspensions are plated at 5,000 cells per well in a 96 well microtiter plate and incubated for 3 to […]. Test compounds are serially diluted 3.16-fold in 100% DMSO to generate a 7-point concentration curve. 1 μL of test compound solution is transferred to cell-containing wells and cells are incubated for 48 hours in a cell culture incubator (37° C., 5% CO2, […]). Triplicate samples are set up for each test compound concentration. After 48 hours, the supernatant is removed from the wells and 25 μL of the RIPA lysis buffer, containing protease inhibitors, is added to the wells and incubated with shaking at room temperature for 1 hour. 25 μL of the diluent is added and then 35 μL of the resulting lysate is transferred to a 384-well plate, where each well contains 5 μL of the antibody solution (1:100 dilution of anti-SMN d2 and anti-SMN kryptate in SMN reconstitution buffer). The plate is centrifuged for 1 minute to bring the solution to the bottom of the wells, then incubated overnight at room temperature. Fluorescence for each well of the plate at 665 nm and 620 nm is measured on an EnVision multilabel plate reader (Perkin-Elmer).
The normalized fluorescence signal is calculated for each sample, Blank and vehicle control well by dividing the signal at 665 nm by the signal at 620 nm. Normalizing the signal accounts for possible fluorescence quenching due to the matrix effect of the lysate. The ΔF value (a measurement of SMN protein abundance as a percent value) for each sample well is calculated by subtracting the normalized average fluorescence for the Blank control wells from the normalized fluorescence for each sample well, then dividing this difference by the normalized average fluorescence for the Blank control wells and multiplying the resulting value by 100. The ΔF value for each sample well represents the SMN protein abundance from test compound-treated samples. The ΔF value for each sample well is divided by the ΔF value for the vehicle control wells to calculate the fold increase in SMN protein abundance relative to the vehicle control. Table 5 provides EC1.5x concentrations for SMN protein expression that was obtained from the 7-point concentration data generated according to the above procedure for particular compounds of the present invention.
Table 6 provides the maximum fold increase of SMN protein that was obtained from the 7-point concentration data generated according to the above procedure for particular compounds of the present invention

| Compound | EC (1.5-fold) [µM] | maximal fold induction |
| --- | --- | --- |
| Cc1cn2nc(-c3cc(=O)n4cc(N5CCNC6(CC6)C5)ccc4n3)ccc2n1 [Example 19, 7-(4,7-diazaspiro[2.5]octan-7-yl)-2-(2-methylimidazo[1,2-b]pyridazin-6-yl)pyrido[1,2-a]pyrimidin-4-one] | 0.0298 | 1.83 |
| Cc1cn2nc(-c3cc(=O)n4cc(N5C[C@@H](C)N[C@@H](C)C5)cc(C)c4n3)cc(C)c2n1 [Example 26, 2-(2,8-dimethylimidazo[1,2-b]pyridazin-6-yl)-7-[(3R,5S)-3,5-dimethylpiperazin-1-yl]-9-methyl-pyrido[1,2-a]pyrimidin-4-one] | 1.23 | 1.52 |
| Cc1cn2nc(-c3cc(=O)n4cc(N5CCNC(C)(C)C5)cc(C)c4n3)cc(C)c2n1 [Example 27, 2-(2,8-dimethylimidazo[1,2-b]pyridazin-6-yl)-7-(3,3-dimethylpiperazin-1-yl)-9-methyl-pyrido[1,2-a]pyrimidin-4-one] | 0.127 | 1.57 |
